US20120065165A1, “COMPOSITIONS AND METHODS OF TREATING ENDOTHELIAL DISORDERS” (ARGINETIX, INC, priority 2008, published 2012)
Like-named read-outs stand apart in the source and are kept apart here.

Experiments:
PDE1 = conditions: pulmonary vascular tissue; cited from earlier work
arginase [1] = conditions: cited from earlier work
[2] = in vivo; cited from earlier work
[3] = test system: lambs with chemically induced PAH; conditions: cited from earlier work
arginase [4] = conditions: internal anal sphincter; cited from earlier work
old rat aortic segments = assay: NO production in aortic rings (slope of DAF fluorescence); type: cell-based; conditions: old/aged rat aorta
Source text: ABH improves endothelial function by inhibiting arginase and consequently increasing NO production (by increasing L-arginine availability to eNOS) and decreasing levels of ROS (by preventing eNOS uncoupling). […] Aortic rings were dissected and pinned down, endothelial side up, on a silastic coated culture dish, and then exposed to either the NO-sensitive dye DAF, or the O2-sensitive dye DHE. Since the interaction of NO or ROS with its specific dye is cumulative, the rate of production of each species is proportional to the slope of the fluorescence emitted from the dye as measured using epifluorescence microscopy. […] SNP endothelial-independent NO donor was included as a control (Santhanam et al 2007).

rat aortic tissues = assay: cGMP levels in aortic rings of old rats incubated with sildenafil and ABH (cGMP EIA); type: cell-based; conditions: ABH 0 nM
Method: The source of tissue was old (22 to 24 months) male Fischer 344 rats purchased from National Institute for Aging (NIA). The rats were anesthetized in an isoflurane chamber and euthanized. The entire length of the aorta (thoracic, arch, abdominal) were dissected out and cleaned free of connective tissue. These aorta were then sectioned into ˜3 mm long rings. Samples were collected from 2 rats and pooled. […] Rings were incubated in varying concentrations of sildenafil (0-2000 nM) and ABH (0-500 nM) prepared in 200 μL Krebs buffer for 10 min at 37° C. The rings were then snap frozen in liquid nitrogen following treatment. The next day, samples were homogenized in 200 μL 6% TCA buffer (prepared by adding TCA to DI water) at 4° C. for extraction of cyclic nucleotides. The samples were then centrifuged at 12,000 rpm for 5 min at 4° C. Protein pellets were re-dissolved in PBS to determine protein concentration, and supernatant was reserved for cGMP detection. […] ABH (MW 211.45): A stock solution of ABH at a concentration of 100 mM was prepared by dissolving 21.1 mg of ABH into 1 ml Krebs solution. This was used to prepare 5 ml of a 1 mM stock. 200 μL of the 1 mM solution were dispensed into column 12 of a 96-well plate. Six 2× dilutions were prepared in the plate. 200 μL Krebs were dispensed in column 5 to get a concentration range of 0-1000 nM (2× of final concentration). Sildenafil (MW 474.5): A stock solution of sildenafil at a concentartion of 100 mM was prepared by dissolving 47.4 mg of sildenafil into 1 ml Krebs solution; 5 ml of 2 mM stock was prepared from this. Row A received 200 μL of Krebs buffer (0 mM sildenafil), mixed well, and adjusted to a final volume of 200 μL. Next, 200 μL of the 2 mM sildenafil stock was dispensed into row H of the 96 well plate already containing the ABH dilutions ([…]). Six 2× dilutions were prepared from this to get the final concentration ranges for the two drugs. cGMP levels were determined with a cGMP kit (Amersham cGMP Enzyme immunoassay Biotrak (EIA) System Cat #RPN226) and run in accordance with the manufacture's recommendations. The assay uses a competitive fluorescent immunoassay format to measure levels of cGMP. It combines the use of a peroxidase-labelled cGMP conjugate, a specific antiserum which can be immobilized on to pre-coated microplates, and a one-pot stabilized substrate solution. […] In the absence of cGMP most of the HRP conjugate is bound to the antibody and yields a high fluorescence. Increasing concentrations of cGMP competitively decreases the binding of the HRP conjugate, decreasing the measured fluorescence (HRP activity). […] The plate was then incubated for 2 hrs at room temperature with shaking after which it is washed and the fluorescent substrate is added. The plate was incubated for an additional 10 min and then read on a Molecular Devices Gemini EM plate reader set at Ex 530 nm, Em 590 nm (endpoint mode). The signal is reported to be stable for up to 24 hrs, but was generally read within 2 hrs. […] These values were calculated based on the resultant ratio of fluorescence reading of sample divided by fluorescense reading with no cGMP (pmols/mg). For each concentration combination of sildenafil and ABH administered to cells, absorbance (OD at 450 nm) was measured. From these values, the absorbance adjusted for non-specific binding (NSB) for each sample (OD-NSB(B)) was determined from the absorbance (B) divided by the absorbance without cGMP (Bo). Using this value and the standard curve for cGMP, the log (fmol) is found and, after adjusting for the quantity of protein, the pmols of cGMP/mg protein is calculated.

patients with PAH [5] = conditions: oral administration; cited from earlier work
[6] = test system: hypoxia-induced pulmonary hypertension; conditions: cited from earlier work
patients with PAH [7] = conditions: three times daily; cited from earlier work

In the case of `CCOC(=O)C1=C[C@]2(CC)CCCN3CCc4c(n1c1ccccc41)[C@@H]32` [vinpocetine], the NO-stimulated dilation (PDE1) is given as “enhances” and the “basal cGMP or cAMP” value (PDE1) is given as “little effect”.
For `N=C(NO)NCC[C@H](N)C(=O)O` [nor-NOHA, N^ω-hydroxy-nor-L-arginine], the “in vivo inhibition of serum arginase” value (arginase [1]) is listed as “inhibition of serum arginase” and the bioavailability [2] is listed as “poor bioavailability”.
In the case of `CCCOc1ccccc1-c1nc2nn[nH]c2c(=O)[nH]1` [Zaprinast], the “pulmonary vasodilation induced by inhaled NO” value ([3]; lambs with chemically induced PAH) is listed as “potentiates and markedly prolongs”.
For `N=C(NO)NCCC[C@H](N)C(=O)O` [L-HO-Arg, Nω-hydroxy-L-arginine], the “NANC relaxation suppressed by excess arginase” value (arginase [4]) is given as “restored”.
For `N[C@@H](CSCCB(O)O)C(=O)O` [BEC, S-(2-Boronoethyl)-L-cysteine], the “NO production (slope of the DAF fluorescence)” value (old rat aortic segments) was “augments NO production”.
In the case of `CCCc1nn(C)c2c(=O)[nH]c(-c3cc(S(=O)(=O)N4CCN(C)CC4)ccc3OCC)nc12` [sildenafil], the “Theoretical response T(x,y) based on an additive effect” value (from here on “Theoretical response T(x,y) based”) (rat aortic tissues; sildenafil 31 nM) is reported as 0.27 pmol/mg, the “pmols of cGMP/mg protein produced P(x,y)” value (rat aortic tissues; sildenafil 31 nM) is reported as 0.27 pmols/mg and the “Theoretical response T(x,y) based” value (rat aortic tissues; sildenafil 125 nM) is reported as 2.56 pmol/mg. For the same molecule, the “pmols of cGMP/mg protein produced P(x,y)” value (rat aortic tissues; sildenafil 125 nM) was 2.56 pmols/mg, the “Theoretical response T(x,y) based” value (rat aortic tissues; sildenafil 500 nM) was 0.88 pmol/mg and the “pmols of cGMP/mg protein produced P(x,y)” value (rat aortic tissues; sildenafil 500 nM) was 0.88 pmols/mg. The “Theoretical response T(x,y) based” value (rat aortic tissues; sildenafil 2000 nM) was 0.80 pmol/mg, the “pmols of cGMP/mg protein produced P(x,y)” value (rat aortic tissues; sildenafil 2000 nM) was 0.80 pmols/mg and the pulmonary vasodilation (patients with PAH [5]) was “selective pulmonary vasodilation”. For the same molecule, the “pulmonary vasodilator response to inhaled NO” value ([3]; aerosolized form, lambs with PAH) was “augmented”, the hypoxia-induced pulmonary hypertension ([6]; mice lacking NOS3 (eNOS)) was “little effect” and the hypoxia-induced pulmonary hypertension ([6]; mouse, in vivo) was “substantially ablated”. For the same molecule, the WHO functional class (patients with PAH [7]) was “improved”, the “exercise capacity (6-minute walk test)” value (patients with PAH [7]) was “improved” and the pulmonary arterial pressure (patients with PAH [7]) was “decreased”. For the same molecule, the pulmonary vascular resistance (patients with PAH [7]) was “decreased”.
